This test concerns SK-MEL-2 cells. Kind of test: MTT proliferation inhibition, NRAS mutant melanoma cell line. Conditions: Homo sapiens, SK-MEL-2, 72 h.

The structures appear in SMILES notation. Like-named read-outs stand apart in the source and are kept apart here.

Description: All cells were provided by Beijing Cancer Hospital. Human melanoma cell line SK-MEL-2 (NRAS Q61R) was cultured with MEM supplemented with 10%FBS and penicillin streptomycin in an incubator at 37 °C and 5% carbon dioxide.
When the confluence of the cultured cells reached more than 80%, the adherent cells were digested with trypsin and the cell precipitate was collected by centrifugation, counted, and 90 µL of the cell suspension was seeded in a 96-well plate at the appropriate density. […] Each concentration was set up three multiple Wells, a total of 9 concentration points. The Wells added with the same volume of 5% DMSO were used as control, and the final concentration of DMSO was 0.5%. After 3 days of drug treatment, the cell viability was detected by MTT, and 10 µL MTT was added to each well and incubated in the incubator for another 4 hours. After the supernatant was discarded and 150 µL DMSO was added to dissolve the crystal, and the absorbance at 490 nm was detected by microplate reader. The above experiments were repeated three times. The dose-effect curve was made and IC50 was calculated by GraphPad Prism 8 software.

Turning to `Cn1cnc2c(F)c(Nc3ccc(Br)cc3F)c(C(=O)NOCCO)cc21` [MEK162], the IC50 runs as follows: (read-out: IC5o(nM) 1st) 74.8 nM; (read-out: IC5o(nM) 2nd) 68.3 nM; (read-out: IC5o(nM) 3rd) 222 nM; (read-out: Mean value (nM)) 122 nM.

The values above are taken from patent publication EP4663631A1, “POLYMORPH AS PROTEIN KINASE MEK INHIBITOR, AND PREPARATION METHOD THEREFOR AND USE THEREOF” (Shanghai Kechow Pharma, Inc., priority 2023, dated 2024).
